Measurements taken from patent US7964104B2, “Active antiseptic water or active water-based fluid, and production method and apparatus for the same” (Japan Techno Co., Ltd., priority 2003, dated 2011).

Settings: level of nitrite and sulfite ions in the water

Q: Which “Level at which the antiseptic effect is inadequate” value does the source give for nitrite and sulfite ions here?
A: less than 0.08 mg/L
